Source: US6838453B2, “Antagonist derivatives of the vitronectin receptor” (Aventis Pharma S.A., priority 2000, dated 2005)

Target: human αvβ3 receptor (Homo sapiens, UniProt P05106+P06756)
Assay: Kistrin/Vitronectin Receptor (αvβ3) ELISA test
Type: binding
Conditions: Kistrin-coated plates, co-incubated 3 hours at ambient temperature, 4B12-HRP antibody, OD 450 nm, read-out: K/VnR IC50
Experimental: Kistrin/Vitronectin Receptor (αvβ3) ELISA Test
96-well MaxiSorp planes are coated overnight at […] with 100 μl of Kistrin at 1 μg/ml (dilution in a coating buffer: carbonate 0.05 M/NaOH pH 9.6). The next day, the wells are emptied and the ligands (kistrin) are then fixed (fixing buffers: PBS containing 0.5% BSA (pH=7.4)) for 1 hour at ambient temperature with gentle agitation at 125 rpm. The wells are washed six times (washing buffer: PBS containing 0.05% of Tween 20 (pH 7.7) then the following are added per well and in this order: • 40 μl of incubation buffer • 10 μl of the dilution of the product to be tested (the products are diluted in a 50:50 mixture DMSO/Water) • 50 μl of human αvβ3 receptor (cf Pytella et al. Methods Enzymol. (1987) 144 (Dilution in incubation buffer, to be adapted according to the receptor batch and according to the ligand). The ligand, the αvβ3 receptor and the products to be studied are co-incubated for 3 hours at ambient temperature with gentle agitation at 125 rpm.
The wells are again washed six times, then incubated for 2 hours at ambient temperature with gentle agitation at 125 rpm, in the presence of 100 μl of anti-receptor antibody conjugated to a peroxidase (The 4B12-HRP antibody is diluted in an incubation buffer (50 mM TRIS pH 7.4; 0.5% BSA; 0.05% Tween 20; 1 mM MnCl2; 50 μM CaCl2; 50 μM MgCl2; 100 mM NaCl) The dilution is adapted according to the receptor batch.
The wells are then washed six times before measuring the ligand-receptor bond carried out using a peroxidase developer kit (TBM Microwell Peroxidase Substrate System Kirkegaard; Cat. Ref. 50-76-00).
This kit contains a bottle A of substrate (3,3′,5,5′-tetramethylebenzidine at 0.4 g/l) and a bottle B (H2O2 at 0.02% in a Citrate/Citric acid buffer). Extemporaneously, a volume of A is mixed with a volume of B, then the reaction mixture is distributed at a rate of 100 μl/well.
The enzymatic reaction develops between 6 and 10 minutes for Kistrin/αvβ3 then its evolution is stopped by the addition of 100 μl of 1M phosphoric acid. The optical density is determined at 450 nm.
Expression of the Results
The following curve is plotted: the bond percentage as a function of the logarithm of each concentration of the tested product.
For each product, the IC50 is determined according to the following formula: IC50=(B0+Bmin)/2 • B0=Maximum bond in the absence of any product • Bmin =Minimum bond in the presence of the highest concentration of the product.

Sequence of human αvβ3 receptor (P06756 31-889 limits assumed): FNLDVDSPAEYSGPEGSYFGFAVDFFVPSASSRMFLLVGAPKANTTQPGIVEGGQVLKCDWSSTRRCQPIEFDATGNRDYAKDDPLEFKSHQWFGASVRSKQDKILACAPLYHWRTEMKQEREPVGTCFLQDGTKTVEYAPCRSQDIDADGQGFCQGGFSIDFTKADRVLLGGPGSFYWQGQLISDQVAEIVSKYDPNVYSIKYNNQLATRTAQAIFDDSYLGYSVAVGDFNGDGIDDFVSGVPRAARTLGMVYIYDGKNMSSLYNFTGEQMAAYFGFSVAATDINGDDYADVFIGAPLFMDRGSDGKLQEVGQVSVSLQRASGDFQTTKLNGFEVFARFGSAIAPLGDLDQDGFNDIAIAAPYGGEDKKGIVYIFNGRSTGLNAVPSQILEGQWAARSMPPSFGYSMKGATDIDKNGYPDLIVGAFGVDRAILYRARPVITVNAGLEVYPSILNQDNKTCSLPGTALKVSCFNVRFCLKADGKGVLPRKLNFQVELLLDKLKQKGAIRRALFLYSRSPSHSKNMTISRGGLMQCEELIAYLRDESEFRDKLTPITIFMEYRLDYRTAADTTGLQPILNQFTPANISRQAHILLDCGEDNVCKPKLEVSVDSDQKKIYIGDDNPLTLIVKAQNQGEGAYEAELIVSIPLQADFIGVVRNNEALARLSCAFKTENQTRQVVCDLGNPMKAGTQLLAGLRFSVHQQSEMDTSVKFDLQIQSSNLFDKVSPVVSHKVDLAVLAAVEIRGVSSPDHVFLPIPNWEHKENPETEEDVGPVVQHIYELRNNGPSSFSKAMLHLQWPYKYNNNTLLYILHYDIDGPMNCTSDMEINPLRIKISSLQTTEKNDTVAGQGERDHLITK
Sequence of human αvβ3 receptor (P06756 891-1048 limits assumed): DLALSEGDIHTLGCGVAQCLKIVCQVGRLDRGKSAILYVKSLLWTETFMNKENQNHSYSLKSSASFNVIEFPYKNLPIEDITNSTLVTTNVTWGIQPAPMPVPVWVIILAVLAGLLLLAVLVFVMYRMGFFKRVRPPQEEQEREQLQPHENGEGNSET
Sequence of human αvβ3 receptor (P05106 27-788): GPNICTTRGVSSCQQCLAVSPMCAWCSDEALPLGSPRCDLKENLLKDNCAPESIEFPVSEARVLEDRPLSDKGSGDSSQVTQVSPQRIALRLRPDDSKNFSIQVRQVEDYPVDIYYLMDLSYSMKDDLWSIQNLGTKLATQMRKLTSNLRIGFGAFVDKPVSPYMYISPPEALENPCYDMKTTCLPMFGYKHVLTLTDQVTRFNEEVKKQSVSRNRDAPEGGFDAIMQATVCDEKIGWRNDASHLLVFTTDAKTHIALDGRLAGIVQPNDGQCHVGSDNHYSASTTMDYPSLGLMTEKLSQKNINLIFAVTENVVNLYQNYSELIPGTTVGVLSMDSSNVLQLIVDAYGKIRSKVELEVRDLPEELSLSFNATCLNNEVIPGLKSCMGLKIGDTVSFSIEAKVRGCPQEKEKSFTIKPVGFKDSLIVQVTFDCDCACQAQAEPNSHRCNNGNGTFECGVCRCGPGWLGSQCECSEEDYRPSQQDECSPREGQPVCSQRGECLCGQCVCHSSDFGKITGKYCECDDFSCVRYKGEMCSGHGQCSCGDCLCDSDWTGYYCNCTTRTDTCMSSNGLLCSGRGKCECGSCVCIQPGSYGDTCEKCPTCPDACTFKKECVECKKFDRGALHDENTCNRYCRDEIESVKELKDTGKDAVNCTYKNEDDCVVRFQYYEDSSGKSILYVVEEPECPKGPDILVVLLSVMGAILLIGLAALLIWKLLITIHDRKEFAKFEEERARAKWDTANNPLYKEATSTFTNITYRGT

IC50 [nM] | Structure (SMILES)
7 | O=C(CCCOc1ccc(C[C@H](Nc2nc3cc(Cl)cc(Cl)c3o2)C(=O)O)cc1)NC1=NCCCN1 [Example 28, N-(5,7-dichloro-2-benzoxazolyl)-O-[4-oxo-4-[(1,4,5,6-tetrahydro-2-pyrimidinyl)amino]butyl]-L-tyrosine]
10 | Cc1c(Cl)cc2nc(N[C@@H](Cc3ccc(OCCCC(=O)NC4=NCCCN4)cc3)C(=O)O)oc2c1Cl [Example 29, N-(5,7-dichloro-6-methyl-2-benzoxazolyl)-O-[4-oxo-4-[(1,4,5,6-tetrahydro-2-pyrimidinyl)amino]butyl]-L-tyrosine]
7 | O=C(CCCOc1ccc(C[C@H](Nc2nc3cc(S(=O)(=O)Nc4ccccc4)ccc3o2)C(=O)O)cc1)NC1=NCCCN1 [Example 30, N-[5-[(phenylamino)sulphonyl]-2-benzoxazolyl]-O-[4-oxo-4-[(1,4,5,6-tetrahydro-2-pyrimidinyl)amino]butyl]-L-tyrosine]
5 | CN(c1ccccc1)S(=O)(=O)c1ccc2oc(N[C@@H](Cc3ccc(OCCCC(=O)NC4=NCCCN4)cc3)C(=O)O)nc2c1 [Example 31, N-[5-[(N-methylphenylamino)sulphonyl]-2-benzoxazolyl]-O-[4-oxo-4-[(1,4,5,6-tetrahydro-2-pyrimidinyl)amino]butyl]-L-tyrosine]
10 | O=C(CCCOc1ccc(C[C@H](Nc2nc3ccc(Cl)cc3s2)C(=O)O)cc1)NC1=NCCCN1 [Example 32, N-(6-chloro-2-benzothiazolyl)-O-[4-oxo-4-[(1,4,5,6-tetrahydro-2-pyrimidinyl)amino]butyl]-L-tyrosine]
7 | O=C(CCCOc1ccc(C[C@H](Nc2nc3cccc(Br)c3s2)C(=O)O)cc1)NC1=NCCCN1 [Example 33, N-(7-bromo-2-benzothiazolyl)-O-[4-oxo-4-[(1,4,5,6-tetrahydro-2-pyrimidinyl)amino]butyl]-L-tyrosine]
18 | O=C(CCCOc1ccc(C[C@H](Nc2nc3cc(Br)ccc3s2)C(=O)O)cc1)NC1=NCCCN1 [Example 34, N-(5-bromo-2-benzothiazolyl)-O-[4-oxo-4-[(1,4,5,6-tetrahydro-2-pyrimidinyl)amino]butyl]-L-tyrosine]
18 | O=C(CCCOc1ccc(C[C@H](Nc2nc3ccccc3[nH]2)C(=O)O)cc1)NC1=NCCCN1 [Example 35, N-(1H-benzimidazol-2-yl)-O-[4-oxo-4-[(1,4,5,6-tetrahydro-2-pyrimidinyl)amino]butyl]-L-tyrosine]
